Measurements as given in ChEMBL document CHEMBL5212743, “Selectivity Literature for EUbOPEN Chemogenomics Library wave 3” (2023).

How the values were obtained:
[1] = molecular target: T1, Tyrosine-protein kinase SYK (Homo sapiens, UniProt P43405); assay: Selectivity interaction (ScanMAX (DiscoverX, competition-binding assay)) EUB0000232b SYK
[2] = molecular target: T1, Tyrosine-protein kinase SYK; assay: Selectivity interaction (ScanMAX (DiscoverX)) EUB0000232b SYK; conditions: at 1 µM
[3] = molecular target: T2, Epidermal growth factor receptor (Homo sapiens, UniProt P00533); assay: (§1) Selectivity interaction (ScanMAX (DiscoverX)) EUB0000232b EGFR; conditions: at 1 µM
[4] = molecular target: T3, Tyrosine-protein kinase Lck (Homo sapiens, UniProt P06239); assay: Selectivity interaction (ScanMAX (DiscoverX)) EUB0000232b LCK; conditions: at 1 µM
[5] = molecular target: T3, Tyrosine-protein kinase Lck; assay: Selectivity interaction (ScanMAX (DiscoverX, competition-binding assay)) EUB0000232b LCK
[6] = molecular target: T4, STE20-like serine/threonine-protein kinase (Homo sapiens, UniProt Q9H2G2); assay: Selectivity interaction (ScanMAX (DiscoverX, competition-binding assay)) EUB0000232b SLK
[7] = molecular target: T2, Epidermal growth factor receptor; assay: Selectivity interaction (ScanMAX (DiscoverX, competition-binding assay)) EUB0000232b EGFR
[8] = molecular target: T4, STE20-like serine/threonine-protein kinase; assay: Selectivity interaction (ScanMAX (DiscoverX)) EUB0000232b SLK; conditions: at 1 µM
[9] = molecular target: T2, Epidermal growth factor receptor; assay: as §1; conditions: at 1 µM; remark: listed apart in the source
[10] = system: Epidermal growth factor receptor (Homo sapiens), P00533 [L858R]; assay: as §1; conditions: at 1 µM
[11] = molecular target: Histone-lysine N-methyltransferase SETDB1 (Homo sapiens, UniProt Q15047); assay: Selectivity interaction (HMT panel) EUB0000194b SETDB1
[12] = molecular target: T5, Histone-lysine N-methyltransferase SETD7 (Homo sapiens, UniProt Q8WTS6); assay: Selectivity interaction (HMT panel) EUB0000194b SETD7
T5 sequence (Q8WTS6 whole entry): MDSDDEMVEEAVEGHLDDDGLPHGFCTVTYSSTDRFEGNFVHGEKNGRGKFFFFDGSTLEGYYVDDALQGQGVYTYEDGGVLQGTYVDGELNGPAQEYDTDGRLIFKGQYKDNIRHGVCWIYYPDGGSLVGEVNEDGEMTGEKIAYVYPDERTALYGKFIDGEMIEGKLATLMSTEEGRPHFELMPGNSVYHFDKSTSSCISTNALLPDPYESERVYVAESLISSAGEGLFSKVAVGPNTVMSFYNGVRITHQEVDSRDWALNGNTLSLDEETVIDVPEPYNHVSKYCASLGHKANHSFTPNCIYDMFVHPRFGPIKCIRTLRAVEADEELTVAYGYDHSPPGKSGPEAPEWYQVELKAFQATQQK

[13] = molecular target: T6, Alpha-2C adrenergic receptor (Homo sapiens, UniProt P18825); assay: Selectivity interaction (Enzyme panel (GPCRS, ion channels, and transporters)) EUB0000194b ADRA2C
T6 sequence (P18825 whole entry): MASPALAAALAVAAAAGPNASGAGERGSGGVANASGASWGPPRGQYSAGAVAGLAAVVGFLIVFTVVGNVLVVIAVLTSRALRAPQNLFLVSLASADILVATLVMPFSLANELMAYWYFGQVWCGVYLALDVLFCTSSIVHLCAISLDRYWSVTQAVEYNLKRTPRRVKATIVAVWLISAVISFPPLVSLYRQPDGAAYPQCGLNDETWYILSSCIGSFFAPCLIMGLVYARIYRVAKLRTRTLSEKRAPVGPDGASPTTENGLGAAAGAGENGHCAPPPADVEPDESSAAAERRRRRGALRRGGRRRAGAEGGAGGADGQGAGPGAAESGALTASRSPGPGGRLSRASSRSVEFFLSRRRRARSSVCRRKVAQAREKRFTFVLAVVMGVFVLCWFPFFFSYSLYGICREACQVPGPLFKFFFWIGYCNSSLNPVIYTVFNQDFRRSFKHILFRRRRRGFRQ

[14] = molecular target: Protein arginine N-methyltransferase 5 (Homo sapiens, UniProt O14744); assay: Selectivity interaction (HMT panel) EUB0000194b PRMT5
[15] = molecular target: Protein arginine N-methyltransferase 1 (Homo sapiens, UniProt Q99873); assay: Selectivity interaction (HMT panel) EUB0000194b PRMT1
[16] = molecular target: Protein arginine N-methyltransferase 8 (Homo sapiens, UniProt Q9NR22); assay: Selectivity interaction (HMT panel) EUB0000194b PRMT8
[17] = molecular target: Histone-lysine N-methyltransferase EZH2 (Homo sapiens, UniProt Q15910); assay: Selectivity interaction (HMT panel) EUB0000194b EZH2
[18] = molecular target: T7, N-lysine methyltransferase KMT5A (Homo sapiens, UniProt Q9NQR1); assay: Selectivity interaction (HMT panel) EUB0000194b SETD8
T7 sequence (Q9NQR1 whole entry): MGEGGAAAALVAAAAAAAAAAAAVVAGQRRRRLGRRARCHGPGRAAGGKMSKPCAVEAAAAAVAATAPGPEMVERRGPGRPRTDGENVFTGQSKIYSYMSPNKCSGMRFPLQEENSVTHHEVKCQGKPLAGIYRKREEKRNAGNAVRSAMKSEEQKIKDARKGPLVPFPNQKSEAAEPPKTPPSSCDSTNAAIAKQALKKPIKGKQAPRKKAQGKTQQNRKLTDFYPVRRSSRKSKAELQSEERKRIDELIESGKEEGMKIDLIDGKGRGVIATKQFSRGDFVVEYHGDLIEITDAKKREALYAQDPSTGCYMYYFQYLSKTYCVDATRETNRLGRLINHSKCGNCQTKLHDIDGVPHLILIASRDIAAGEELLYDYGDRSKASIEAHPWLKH

[19] = molecular target: Histone-lysine N-methyltransferase KMT5B (Homo sapiens, UniProt Q4FZB7); assay: Selectivity interaction (HMT panel) EUB0000194b SUV420H1
[20] = molecular target: Histone-arginine methyltransferase CARM1 (Homo sapiens, UniProt Q86X55); assay: Selectivity interaction (HMT panel) EUB0000194b CARM1
[21] = molecular target: Protein arginine N-methyltransferase 3 (Homo sapiens, UniProt O60678); assay: Selectivity interaction (HMT panel) EUB0000194b PRMT3
[22] = molecular target: Histone-lysine N-methyltransferase KMT5C (Homo sapiens, UniProt Q86Y97); assay: Selectivity interaction (HMT panel) EUB0000194b SUV420H2
[23] = molecular target: Histone-lysine N-methyltransferase SUV39H2 (Homo sapiens, UniProt Q9H5I1); assay: Selectivity interaction (HMT panel) EUB0000194b SUV39H2
[24] = molecular target: Histone-lysine N-methyltransferase 2A (Homo sapiens, UniProt Q03164); assay: Selectivity interaction (HMT panel) EUB0000194b MLL
[25] = molecular target: Mitogen-activated protein kinase 9 (Homo sapiens, UniProt P45984); assay: Selectivity interaction (KinomeScan (DiscoverX)) EUB0000312b MAPK9; conditions: at 1 µM
[26] = molecular target: T8, Tyrosine-protein kinase JAK1 (Homo sapiens, UniProt P23458); assay: Selectivity interaction (NanoBRET assay (HEK293T cells)) EUB0000312b JAK1@kinase 1
[27] = molecular target: T8, Tyrosine-protein kinase JAK1; assay: Selectivity interaction (KinomeScan (DiscoverX)) EUB0000312b JAK1@kinase 1; conditions: at 1 µM
[28] = molecular target: T9, Epithelial discoidin domain-containing receptor 1 (Homo sapiens, UniProt Q08345); assay: Selectivity interaction (KinomeScan (DiscoverX)) EUB0000312b DDR1; conditions: at 1 µM
[29] = molecular target: T9, Epithelial discoidin domain-containing receptor 1; assay: Selectivity interaction (NanoBRET assay (HEK293T cells)) EUB0000312b DDR1
[30] = molecular target: T10, Calcium/calmodulin-dependent protein kinase type 1B (Homo sapiens, UniProt Q6P2M8); assay: Selectivity interaction (NanoBRET assay (HEK293T cells)) EUB0000312b PNCK
[31] = molecular target: T11, Phosphatidylinositol 4,5-bisphosphate 3-kinase catalytic subunit alpha isoform (Homo sapiens, UniProt P42336); assay: Selectivity interaction (KinomeScan (DiscoverX)) EUB0000312b PIK3CA; conditions: at 1 µM
[32] = molecular target: T10, Calcium/calmodulin-dependent protein kinase type 1B; assay: Selectivity interaction (KinomeScan (DiscoverX)) EUB0000312b PNCK; conditions: at 1 µM
[33] = molecular target: T11, Phosphatidylinositol 4,5-bisphosphate 3-kinase catalytic subunit alpha isoform; assay: Selectivity interaction (NanoBRET assay (HEK293T cells)) EUB0000312b PIK3CA

T2 sequence (P00533 whole entry): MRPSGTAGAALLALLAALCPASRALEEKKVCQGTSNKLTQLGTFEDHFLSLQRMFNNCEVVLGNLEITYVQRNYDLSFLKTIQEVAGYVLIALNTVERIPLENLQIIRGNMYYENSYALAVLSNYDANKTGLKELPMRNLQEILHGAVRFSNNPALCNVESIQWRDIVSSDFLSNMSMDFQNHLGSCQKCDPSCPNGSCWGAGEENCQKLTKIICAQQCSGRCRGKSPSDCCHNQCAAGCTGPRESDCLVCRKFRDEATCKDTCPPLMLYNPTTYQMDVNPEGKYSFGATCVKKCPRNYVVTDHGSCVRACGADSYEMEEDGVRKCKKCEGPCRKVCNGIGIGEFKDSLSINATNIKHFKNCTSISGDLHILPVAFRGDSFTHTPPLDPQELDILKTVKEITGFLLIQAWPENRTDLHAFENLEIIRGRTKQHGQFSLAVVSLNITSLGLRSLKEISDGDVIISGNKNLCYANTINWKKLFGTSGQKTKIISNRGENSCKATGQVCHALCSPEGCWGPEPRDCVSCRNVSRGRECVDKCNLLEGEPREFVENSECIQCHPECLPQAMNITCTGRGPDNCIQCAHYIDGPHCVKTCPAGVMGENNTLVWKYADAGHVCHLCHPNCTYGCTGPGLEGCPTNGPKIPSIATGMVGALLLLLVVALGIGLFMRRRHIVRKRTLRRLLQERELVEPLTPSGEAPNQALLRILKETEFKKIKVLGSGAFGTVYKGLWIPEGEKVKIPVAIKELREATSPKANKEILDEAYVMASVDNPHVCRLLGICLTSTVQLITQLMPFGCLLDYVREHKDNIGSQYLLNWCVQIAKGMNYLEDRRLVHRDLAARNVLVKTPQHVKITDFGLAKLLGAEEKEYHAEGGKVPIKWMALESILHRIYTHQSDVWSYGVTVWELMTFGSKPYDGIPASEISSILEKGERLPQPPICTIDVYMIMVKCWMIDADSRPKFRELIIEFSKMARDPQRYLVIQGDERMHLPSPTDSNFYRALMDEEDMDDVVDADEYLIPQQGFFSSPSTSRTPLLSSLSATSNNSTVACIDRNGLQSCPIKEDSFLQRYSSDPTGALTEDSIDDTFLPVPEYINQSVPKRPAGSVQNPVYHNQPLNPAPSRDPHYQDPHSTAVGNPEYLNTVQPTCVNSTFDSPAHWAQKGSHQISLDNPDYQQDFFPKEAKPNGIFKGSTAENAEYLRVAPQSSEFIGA
T8 sequence (P23458 whole entry): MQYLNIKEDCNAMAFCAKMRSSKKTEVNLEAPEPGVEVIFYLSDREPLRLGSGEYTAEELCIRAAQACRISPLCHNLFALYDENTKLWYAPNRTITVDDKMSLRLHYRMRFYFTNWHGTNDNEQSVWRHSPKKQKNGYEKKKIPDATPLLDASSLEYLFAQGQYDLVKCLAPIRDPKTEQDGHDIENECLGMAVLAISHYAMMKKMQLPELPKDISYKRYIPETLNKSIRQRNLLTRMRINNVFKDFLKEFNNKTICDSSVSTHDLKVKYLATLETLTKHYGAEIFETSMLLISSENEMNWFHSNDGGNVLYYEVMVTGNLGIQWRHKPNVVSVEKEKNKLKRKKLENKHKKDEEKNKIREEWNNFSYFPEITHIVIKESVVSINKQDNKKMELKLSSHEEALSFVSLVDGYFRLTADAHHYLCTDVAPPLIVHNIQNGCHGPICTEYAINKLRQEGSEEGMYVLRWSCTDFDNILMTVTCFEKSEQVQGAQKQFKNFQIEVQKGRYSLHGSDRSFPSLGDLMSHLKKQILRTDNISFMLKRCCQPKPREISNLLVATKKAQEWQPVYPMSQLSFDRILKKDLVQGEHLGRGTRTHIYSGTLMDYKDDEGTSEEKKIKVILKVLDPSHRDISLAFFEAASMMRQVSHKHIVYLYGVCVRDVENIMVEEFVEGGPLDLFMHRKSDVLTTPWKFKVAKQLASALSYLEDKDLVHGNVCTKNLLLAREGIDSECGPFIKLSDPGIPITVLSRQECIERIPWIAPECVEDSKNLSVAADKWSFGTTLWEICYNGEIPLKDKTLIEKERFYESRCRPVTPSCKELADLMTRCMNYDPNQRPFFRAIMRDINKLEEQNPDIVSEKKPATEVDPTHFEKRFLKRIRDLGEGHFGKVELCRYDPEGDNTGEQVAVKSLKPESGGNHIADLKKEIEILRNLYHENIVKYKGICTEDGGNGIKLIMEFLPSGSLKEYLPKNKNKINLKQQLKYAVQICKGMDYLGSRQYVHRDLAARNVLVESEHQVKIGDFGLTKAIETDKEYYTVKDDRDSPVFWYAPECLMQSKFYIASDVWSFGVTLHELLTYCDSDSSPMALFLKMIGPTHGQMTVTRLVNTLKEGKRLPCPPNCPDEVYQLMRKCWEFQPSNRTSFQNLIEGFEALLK
T10 sequence (Q6P2M8 whole entry, canonical isoform): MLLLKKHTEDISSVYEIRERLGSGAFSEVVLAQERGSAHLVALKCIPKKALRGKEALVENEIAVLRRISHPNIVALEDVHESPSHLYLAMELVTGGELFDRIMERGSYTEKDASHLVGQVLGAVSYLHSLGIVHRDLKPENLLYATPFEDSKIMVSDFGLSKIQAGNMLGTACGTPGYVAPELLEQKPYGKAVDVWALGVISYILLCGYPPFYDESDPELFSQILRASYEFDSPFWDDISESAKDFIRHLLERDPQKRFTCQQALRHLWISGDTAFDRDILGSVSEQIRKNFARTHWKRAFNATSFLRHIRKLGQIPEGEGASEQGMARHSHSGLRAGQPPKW
T9 sequence (Q08345 whole entry, the tested form may be a part): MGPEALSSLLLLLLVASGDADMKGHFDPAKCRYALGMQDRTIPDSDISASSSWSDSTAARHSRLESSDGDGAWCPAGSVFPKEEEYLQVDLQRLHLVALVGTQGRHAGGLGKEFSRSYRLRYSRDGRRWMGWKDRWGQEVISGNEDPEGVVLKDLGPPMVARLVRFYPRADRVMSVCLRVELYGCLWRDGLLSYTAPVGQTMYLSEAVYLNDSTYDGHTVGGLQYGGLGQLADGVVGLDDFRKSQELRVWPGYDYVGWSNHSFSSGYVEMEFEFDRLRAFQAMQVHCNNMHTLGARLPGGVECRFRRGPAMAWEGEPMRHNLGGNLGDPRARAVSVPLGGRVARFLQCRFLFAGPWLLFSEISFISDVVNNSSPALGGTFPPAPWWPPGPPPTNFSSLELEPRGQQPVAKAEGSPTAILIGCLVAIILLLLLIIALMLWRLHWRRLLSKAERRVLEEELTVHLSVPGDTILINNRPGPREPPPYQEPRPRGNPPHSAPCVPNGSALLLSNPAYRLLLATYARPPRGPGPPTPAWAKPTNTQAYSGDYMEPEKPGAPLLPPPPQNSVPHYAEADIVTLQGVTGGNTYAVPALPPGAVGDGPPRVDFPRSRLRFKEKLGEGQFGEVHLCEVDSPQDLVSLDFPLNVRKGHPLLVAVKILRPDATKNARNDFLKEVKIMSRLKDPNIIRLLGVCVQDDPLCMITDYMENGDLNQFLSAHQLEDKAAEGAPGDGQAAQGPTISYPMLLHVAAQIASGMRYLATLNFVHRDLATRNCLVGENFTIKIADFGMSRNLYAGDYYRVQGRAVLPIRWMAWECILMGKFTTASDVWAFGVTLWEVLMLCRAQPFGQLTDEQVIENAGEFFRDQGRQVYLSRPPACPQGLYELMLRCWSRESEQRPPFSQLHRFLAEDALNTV
T11 sequence (P42336 whole entry, canonical isoform): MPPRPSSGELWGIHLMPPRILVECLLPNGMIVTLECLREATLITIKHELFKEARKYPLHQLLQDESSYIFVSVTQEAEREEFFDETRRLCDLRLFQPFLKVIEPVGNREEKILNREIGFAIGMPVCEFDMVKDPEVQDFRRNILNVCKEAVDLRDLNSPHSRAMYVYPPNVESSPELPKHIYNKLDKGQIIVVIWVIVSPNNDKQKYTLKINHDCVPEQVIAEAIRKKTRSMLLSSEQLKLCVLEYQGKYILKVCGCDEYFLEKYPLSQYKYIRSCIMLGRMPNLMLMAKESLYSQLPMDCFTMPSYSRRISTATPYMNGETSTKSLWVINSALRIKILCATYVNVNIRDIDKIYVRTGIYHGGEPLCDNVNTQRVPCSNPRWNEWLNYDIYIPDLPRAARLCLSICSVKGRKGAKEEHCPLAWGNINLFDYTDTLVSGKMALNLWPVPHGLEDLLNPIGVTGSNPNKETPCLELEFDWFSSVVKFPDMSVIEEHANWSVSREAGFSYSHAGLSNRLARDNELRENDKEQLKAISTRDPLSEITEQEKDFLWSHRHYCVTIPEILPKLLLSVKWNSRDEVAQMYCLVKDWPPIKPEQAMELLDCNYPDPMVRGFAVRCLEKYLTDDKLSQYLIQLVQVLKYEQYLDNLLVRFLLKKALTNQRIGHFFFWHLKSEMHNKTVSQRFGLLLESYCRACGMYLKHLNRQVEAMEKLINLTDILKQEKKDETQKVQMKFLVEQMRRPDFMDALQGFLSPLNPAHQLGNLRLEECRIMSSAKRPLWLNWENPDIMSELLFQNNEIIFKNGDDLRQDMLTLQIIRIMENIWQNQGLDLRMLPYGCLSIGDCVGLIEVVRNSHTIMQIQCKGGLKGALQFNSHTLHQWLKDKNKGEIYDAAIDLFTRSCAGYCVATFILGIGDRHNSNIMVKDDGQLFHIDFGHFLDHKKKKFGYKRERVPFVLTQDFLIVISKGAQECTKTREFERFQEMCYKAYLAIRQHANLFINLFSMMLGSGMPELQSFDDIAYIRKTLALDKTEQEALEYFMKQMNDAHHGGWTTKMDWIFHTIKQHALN
Sequence of Protein arginine N-methyltransferase 1 (Q99873 whole entry): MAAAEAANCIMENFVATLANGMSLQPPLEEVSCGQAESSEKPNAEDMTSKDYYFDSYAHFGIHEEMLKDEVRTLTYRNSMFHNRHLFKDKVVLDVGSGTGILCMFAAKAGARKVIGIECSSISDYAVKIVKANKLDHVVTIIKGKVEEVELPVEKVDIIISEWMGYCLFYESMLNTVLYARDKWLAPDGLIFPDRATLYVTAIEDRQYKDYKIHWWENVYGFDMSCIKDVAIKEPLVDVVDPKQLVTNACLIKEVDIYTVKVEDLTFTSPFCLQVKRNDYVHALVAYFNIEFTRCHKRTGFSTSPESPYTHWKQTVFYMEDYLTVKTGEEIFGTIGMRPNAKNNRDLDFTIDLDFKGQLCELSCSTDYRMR

CCCCN(Cc1ccccc1)C(=O)c1ccc(S(=O)(=O)Nc2ccccc2)cc1
Kd [1]: > 10 µM
% of control [2]: 1.7%
% of control [3]: 0%
% of control [4]: 0%
Kd [5]: > 10 µM
Kd [6]: > 10 µM
Kd [7]: > 10 µM
% of control [8]: 0%
% of control [9]: 4.9%
% of control [10]: 0%

COc1cc2c(NC3CCN(C(C)C)CC3)nc(N3CCC(F)(F)CC3)nc2cc1OCCCN1CCCC1
IC50 [11]: > 10 µM
IC50 [12]: > 10 µM
Ki [13]: > 10 µM
IC50 [14]: > 10 µM
IC50 [15]: > 10 µM
IC50 [16]: > 10 µM
IC50 [17]: > 10 µM
IC50 [18]: > 10 µM
IC50 [19]: > 10 µM
IC50 [20]: > 10 µM
IC50 [21]: > 10 µM
IC50 [22]: > 10 µM
IC50 [23]: > 10 µM
IC50 [24]: > 10 µM

Cc1cnc(-c2cc(Cl)ccc2F)cc1-n1c(=O)n(CC(N)=O)c2cnccc21 [TP-008]
% of control [25]: 39.6%
IC50 [26]: > 20 µM
% of control [27]: 38.6%
% of control [28]: 36.7%
IC50 [29]: > 20 µM
IC50 [30]: > 20 µM
% of control [31]: 33.9%
% of control [32]: 39.5%
IC50 [33]: > 20 µM
